Read-outs that look alike come from different tables or passages of the source.
Columns and labels:
[1] = Transdermal penetration of indomethacin from ointment across shed snake skin (vertical diffusion cell); type: in vitro ADME, black rat snake (Elahe obsoleta)
Procedure: Ointments were prepared by mixing 100 mg (1%) indomethancin, 500 mg (5%) penetration enhancer and 9400 mg (94%) petrolatum at 55°-60°C. to give a homogenous dispersion of indomethacin. In each transport study, 30 mg of ointment containing […] of indomethacin was applied.
(§1) A whole shed snake skin from the molt of adult Elahe obsoleta (black rat snake) was obtained from the Animal Care Unit of the University of Kansas. Only the dorsal side of the shed snake skin was used for in vitro penetration studies. The head and tail sections of the snake skin was removed and the remainder of the skin was cut randomly into sections of approximately 2 inches by 2 inches. Each piece of snake skin was hydrated overnight by first soaking the skin in water (about 5 to 10 minutes) until it could be stretched and then placing it on a plastic pan which held some water. The pan was floated on a water-bath at 32° C. overnight.
For the transport studies using ointments, approximately 30 mg of ointment prepared as described in Example 5 was smeared evenly on an area of the 2"×2" snake skin. The ointment was smeared into an essentially circular area approximately 1.77 cm^2 and having a diameter of approximately 15 mm. The snake skin was then mounted on top of the receptor cell of a vertical diffusion cell assembly in which a small magnetic bar was inserted and filled with an isotonic buffer. A rubber o-ring was placed on top of the skin followed by the placement of the donor cell. The two cells were clamped together and transferred to a water-bath (32° C.) which had several magnetic stirrers placed underneath to stir the contents of the diffusion cells. Samples from the cells were withdrawn periodically by gravity by inputting fresh isotonic buffer into the cell inlets. The first five drops were discarded and the following […] drops were collected for analysis. These nine drops of sample solution were approximately equivalent to about 0.20 ml.
The samples were analyzed for the concentration of indomethacin using a Perkin-Elmer ISS-100 HPLC apparatus with a Perkin-Elmer LC90 UV spectrophotometric detector and a Perkin-Elmer ISS-100 automatic sampler with the detection wavelength set at 260 nm. The peak heights of the chromatograms were recorded on a Perkin-Elmer LCI-100 Laboratory Computing Integrator. A reverse phase column, RP-8 Spheri-5, 4.6×100 mm and a guard column OD-GU, purchased from Brownlee Labs, were used in conjunction with the HPLC system. The flow rate was 1.0 ml/min and the solvent system was a mixture of acetonitrile (50%) and a 0.01 M phosphate buffer (pH 3.0) (50%).
The concentration in each sample was interpreted from a standard curve which was obtained by plotting the peak areas obtained from HPL chromatograms versus four different standard solutions of indomethacin. The standard curves were linear over a range of concentrations from 2.5 to 10 µg/ml. The receptor cell volume was calibrated by weighing the amount of water in the cell. The first sample needs no concentration correction. However, the concentration in the subsequent samples can be corrected by the following equation: [formula] where Xi is number of microgram of indomethacin in the i^th sample. Yi is the concentration correction for i-l sample. The volume withdrawn for each sampling is about 0.20 ml.
(§2) Statistical analyses were performed using the Student's t-test.
Relative penetration enhancements (%) were calculated by [formula]
Azone was selected as the for comparison since it is claimed to excellent enhancer although it is too toxic; was assigned a value of 100% enhancement.
Penetration that was equal the penetration of Azone was reported as 100% rela penetration. All of the relative enhancements in Table 3 are based on the early stage or hours o penetration studies.
At least 3 or 4 cells were used for each enhancer and mean val (μg) of indomethacin in the receptor cells are plotted versus time in hours.

[2] = intraperitoneal administration; cited from earlier work
[3] = type: in vitro ADME, black rat snake (Elahe obsoleta)
Procedure: Patches were prepared by first dissolving 300 mg indomethacin, 400 mg penetration enhancer, 300 mg polyethylene glycol 400 and 800 mg hydroxypropyl cellulose in 20 ml of ethanol. That viscous solution was spread on a backing layer, which was a film of ethoxycellulose, with 0.9 mm of thickness. After drying at 40° C. for one hour, two layer film patches were obtained. Circles with a diameter of 12 mm were used for the transport studies.
as §1, §2

[4] = indomethacin ointment, 5% enhancer, relative to Azone = 100%, early stage of penetration studies, 32° C.

**Q.** Which “Relative Enhancement” value [1] does the source give for `CCCCCCCCOC(=O)CN(C)C` [Compound No. 4, octyl (N,N-dimethylamino)acetate] here?
**A.** Its value is 250%.

**Q.** Which “Relative Enhancement” value [1, 4] does the source give for `CCCCCCCCCCCCCCOC(=O)CN(C)C` [Compound No. 1, tetradecyl (N,N-dimethylamino)acetate] here?
**A.** The value was 100%.

**Q.** Which results are given for `CCCCCCCCCCCCN1CCCCCC1=O` [Azone, 1-Dodecylazacycloheptane-2-One, reference compound]?
**A.** Relative Enhancement [1]: 100%; indomethacin detected in receptor cells ([1]; ointment, early stage of less than 12 hours): only a few; LD50 [2]: approximately 232 mg/kg

**Q.** For `CCCCCCCCCCCCOC(=O)CN(CC)CC` [Compound No. 5, dodecyl (N,N-diethylamino)acetate], which “Relative Enhancement” value [1, 4] is on record?
**A.** Its value is 70%.

**Q.** Which results are given for `CCCCCCCCCCCCOC(=O)CN(C)C` [Compound No. 2, dodecyl (N,N-dimethylamino)acetate]?
**A.** Relative Enhancement [1]: 200%; speed of effect compared with Azone [1]: faster than that of Azone; transport of indomethacin compared with that accelerated by Azone [1]: twice; steady state flux for indomethacin [3]: 3.84 ± 0.57 µg/h; steady state flux ratio versus dodecyl alcohol [3]: 2.5 times; time to reach steady state flux of indomethacin [3]: about 2 hours

**Q.** With `CCCCCCCCCCOC(=O)CN(C)C` [compound 3, decyl (N,N-dimethylamino)acetate] as the compound, how does the “Relative Enhancement” value [1, 4] read?
**A.** Its value is 380%.

**Q.** For `CCCCCCCCCCOC(=O)CN1CCN(C)CC1` [Compound No. 6, Decyl (4-methyl-1-piperazinyl)acetate], which “Relative Enhancement” value [1, 4] is on record?
**A.** Its value is 40%.

**Q.** With `CCCCCCCCCCCCO` [dodecyl alcohol, reference compound] as the compound, how does the “steady state flux for indomethacin” value [3] read?
**A.** The value was 1.49 ± 0.21 µg/h.

**Q.** And the “time to reach steady state flux of indomethacin” value [3]?
**A.** Its value is “about 5 hours”.
